Test system: OP9 cells
Assay: Test of myricetin promoting osteocalcin secretion
Assay type: cell-based, Murine
Details: 0.03125 mg/mL in differentiation culture medium, 7 days; blank group taken as 100%; ELISA of supernatant
From the text: Experimental cell line: Murine bone marrow stromal cells (hereinafter referred to as OP9 cells) were used, and the OP9 cells were purchased from OP9 cell lines (ATCC CRL-2749™) from the American Type Culture Collection (ATCC®). Cell culture medium: It included […] (Minimum Essential Medium Alpha Medium, purchased from Gibco, product number: Cat. 12000-022), 20% of Fetal Bovine Serum (purchased from Gibco, Cat. 10437-028), and 1% of Penicillin-streptomycin (purchased from Gibco, Cat. 15240-062). Differentiation culture medium: It included 90% of DMEM (Dulbecco's modified Eagle's medium, purchased from Gibco, Cat. 12100-038) added with additional ingredients to make it include 10% of FBS (fetal bovine Serum, purchased from Gibco, 10438-026) and 1% of penicillin-streptomycin (purchased from Gibco, Cat. 15140122), 50 μM of ascorbic acid (purchased from Sigma), 10^−7 M of dexamethasome (purchased from Sigma), and 10 mM of β-glycerol (purchased from Sigma). ELISA Kit for Osteocalcin (OC): Brand: USCN; model: SEA471Mu. Flow cytometer: Purchased from BD Pharmingen Company, model: BDTM Accuri C6 Plus. […] The content of osteocalcin in the supernatant to be detected in each well was measured by the […] to promote osteocalcin secretion analysis. […]

Compound O=c1c(O)c(-c2cc(O)c(O)c(O)c2)oc2cc(O)cc(O)c12 [myricetin] has a relative osteocalcin secretion of 121.39%.

Reference: patent US20240261354A1, “METHODS FOR IMPROVING BONE QUALITY AND PROMOTING CARTILAGE DIFFERENTIATION BY CHRYSOPHYLLUM CAINITO EXTRACT AND MANUFACTURING METHOD THEREOF” (TCI CO., LTD., priority 2023, published 2024)
